Assay: solvent given as SMILES

SMILES: CC(C)c1cccc(C(C)C)c1N1C(=O)c2cccc3c(Oc4ccc(Cl)cc4)ccc(c23)C1=O
- absorption maximum (in ClCCl): 360 nm

SMILES: CC(C)c1cc(C(C)C)c(B2c3cc(-n4c5ccc(C(C)(C)C)cc5c5cc(C(C)(C)C)ccc54)ccc3N(c3ccccc3)c3ccc(-n4c5ccc(C(C)(C)C)cc5c5cc(C(C)(C)C)ccc54)cc32)c(C(C)C)c1
- absorption maximum (in C1CCCCC1): 410.54 nm

SMILES: c1ccc(-c2c3ccccc3c(-c3ncccn3)c3ccccc23)cc1
- absorption maximum (in CCO): 390 nm
- absorption maximum (in ClCCl): 393 nm

SMILES: COc1ccc(-c2cc3c(s2)c(C(=O)c2ccccc2)cc(=O)n3Cc2ccccc2)cc1
- absorption maximum (in CC#N): 406 nm
- absorption maximum (in ClCCl): 416 nm

SMILES: CC[C@H](C)COc1ccc(C2=C3C(C)=C(c4ccc5ccc6cccc7ccc4c5c67)C(C)=[N+]3[B-](F)(F)n3c(C)c(-c4ccc5ccc6cccc7ccc4c5c67)c(C)c32)cc1
- absorption maximum (in ClCCl): 530 nm

SMILES: COc1ccc(N(c2ccc(C=C(c3ccccc3)c3ccccc3)cc2)c2ccc(C=C(c3ccccc3)c3ccccc3)cc2)cc1
- absorption maximum (in Cc1ccccc1): 397 nm

SMILES: CCCC1=Cc2nc1ccc1[nH]c(cc1CCOC)c1nc(ccc3[nH]c2cc3CCC)C(CCOC)=C1
- absorption maximum (in Cc1ccccc1): 638 nm

SMILES: c1ccc(C2(c3ccccc3)c3ccc4ccc5ccccc5c4c3-c3c2ccc2ccc4ccccc4c32)cc1
- absorption maximum (in ClCCl): 408 nm

SMILES: c1ccc(-c2cc(-c3ccccc3)[o+]c(-c3ccccc3)c2)cc1
- absorption maximum (in CC#N): 403 nm
- absorption maximum (in ClCCCl): 420 nm

SMILES: Cc1ccc(-c2c3nc(c(-c4ccc(C)cc4)c4ccc([nH]4)c(-c4ccc(OC(=O)C(C)c5cccc(C(=O)c6ccccc6)c5)cc4)c4nc(c(-c5ccc(C)cc5)c5ccc2[nH]5)C=C4)C=C3)cc1 (stereo not drawn)
- absorption maximum (in ClCCl): 649 nm

SMILES: FC(F)(F)c1ccc(C2=Cc3ccccc3[Si]2(c2ccccc2)c2ccccc2)cc1
- absorption maximum (in ClCCl): 336 nm

SMILES: Cc1cc(C#N)ccc1N1c2ccccc2C(c2ccccc2)(c2ccccc2)c2ccccc21
- absorption maximum (in Cc1ccccc1): 349 nm

SMILES: C(#Cc1ccccc1)C(C#Cc1ccccc1)=Cc1cccc(C=C(C#Cc2ccccc2)C#Cc2ccccc2)c1
- absorption maximum (in ClC(Cl)Cl): 349 nm

SMILES: COC(=O)C(N)Cc1ccc(O[Si]2(Oc3ccc(CC(N)C(=O)OC)cc3)n3c4c5ccccc5c3/N=C3N=C(/N=c5/c6ccccc6/c(n52)=N/C2=NC(=N\4)/c4ccccc42)c2ccccc2\3)cc1 (stereo not drawn)
- absorption maximum (in CN(C)C=O): 680 nm

SMILES: CN(C)CCCN1c2ccccc2Sc2ccc(Cl)cc21
- absorption maximum (in CC#N): 312 nm
- absorption maximum (in CO): 311 nm
- absorption maximum (in O): 307 nm

SMILES: C(=C\c1ccncn1)/c1ccc(-c2ccc(N(c3ccccc3)c3ccccc3)cc2)cc1
- absorption maximum (in C1CCOC1): 381 nm
- absorption maximum (in CC#N): 381 nm
- absorption maximum (in CCCCCCC): 373 nm
- absorption maximum (in CS(C)=O): 393 nm

SMILES: CC(C)(C)c1ccc(-c2cc(-c3ccc(-c4cc(-c5ccc(C(C)(C)C)cc5)c(C(=O)NCc5ccccc5)s4)s3)sc2C(=O)NCc2ccccc2)cc1
- absorption maximum (in ClCCl): 394 nm

SMILES: CCCCN1C(=S)c2cccc3c(N(C)C)ccc(c23)C1=S
- absorption maximum (in CC#N): 571 nm
- absorption maximum (in CS(C)=O): 588 nm
- absorption maximum (in Cc1ccccc1): 536 nm

SMILES: N#C/C(=C\c1cn(-c2ccccc2)nc1-c1ccccc1)c1nc2ccccc2s1
- absorption maximum (in C1CCOC1): 381 nm
- absorption maximum (in C1COCCO1): 381 nm
- absorption maximum (in CCO): 380 nm
- absorption maximum (in CCOC(C)=O): 380 nm
- absorption maximum (in CN(C)C=O): 388 nm
- absorption maximum (in CO): 377 nm
- absorption maximum (in CS(C)=O): 382 nm
- absorption maximum (in Cc1ccccc1): 387 nm
- absorption maximum (in ClC(Cl)Cl): 383 nm
- absorption maximum (in ClCCl): 380 nm

SMILES: COc1c(-c2c(OC)c3cccc4ccc5oc(=O)cc2c5c43)c2cc(=O)oc3ccc4cccc1c4c32
- absorption maximum (in CC1CCCO1): 476 nm

SMILES: Cc1ccc2c(c1)c1cc(Br)ccc1n2-c1c(C#N)c(-n2c3ccc(Br)cc3c3cc(Br)ccc32)c(-n2c3ccc(Br)cc3c3cc(Br)ccc32)c(C#N)c1-n1c2ccc(Br)cc2c2cc(Br)ccc21
- absorption maximum (in Cc1ccccc1): 339 nm

SMILES: O=C1C=C(Nc2ccc(F)c(F)c2)C(=O)c2ccccc21
- absorption maximum (in CO): 454 nm

SMILES: O=C1Nc2ccccc2/C1=C/C(=O)c1ccc(Cl)cc1
- absorption maximum (in C1CCCCC1): 335 nm
- absorption maximum (in C1COCCO1): 335 nm
- absorption maximum (in CC#N): 332 nm
- absorption maximum (in CC(C)(C)O): 339 nm
- absorption maximum (in CC(C)O): 339 nm
- absorption maximum (in CCCCCC): 334 nm
- absorption maximum (in CCCCO): 339 nm
- absorption maximum (in CCOC(C)=O): 335 nm
- absorption maximum (in CN(C)C=O): 337 nm
- absorption maximum (in CO): 340 nm
- absorption maximum (in ClCCl): 338 nm
- absorption maximum (in O): 341 nm

SMILES: CCCC1(CCC)c2cc(-c3ccc4c(c3)C(CCC)(CCC)c3cc(C(C)(C)CC)ccc3-4)ccc2-c2ccc(-c3ccc4c(c3)C(CCC)(CCC)c3cc(C(C)(C)CC)ccc3-4)cc21
- absorption maximum (in C1CCCCC1): 351 nm

SMILES: O=C([O-])c1cc2c(ccc3ccccc32)oc1=O
- absorption maximum (in O): 360 nm

SMILES: Nc1cccc2c1C(=O)c1ccccc1-2
- absorption maximum (in C1CCCCC1): 407 nm
- absorption maximum (in CC#N): 420 nm
- absorption maximum (in CCO): 431 nm
- absorption maximum (in c1ccccc1): 416 nm

SMILES: COC(=O)C(NC(=O)OC(C)(C)C)c1ccc2oc(-c3cccc(Oc4ccccc4)c3)nc2c1 (stereo not drawn)
- absorption maximum (in CC1CCCCC1): 321 nm
- absorption maximum (in CC#N): 305 nm
- absorption maximum (in CO): 305 nm

SMILES: Cc1ccc(C2=C3C=CC([Te]c4ccccc4)=[N+]3[B-](F)(F)n3c([Te]c4ccccc4)ccc32)cc1
- absorption maximum (in C1CCOC1): 620 nm

SMILES: N#C/C(=C\c1ccc(Cl)cc1)c1nc(-c2ccccc2)c(-c2ccccc2)s1
- absorption maximum (in CC#N): 365 nm

SMILES: CCn1c2ccccc2c2cc(-c3cc(-c4ccc5c(c4)c4ccccc4n5CC)nc(-c4ccc(OC)cc4)n3)ccc21
- absorption maximum (in C1CCOC1): 365 nm
- absorption maximum (in CCOC(C)=O): 362 nm
- absorption maximum (in CN(C)C=O): 369 nm
- absorption maximum (in Cc1ccccc1): 363 nm
- absorption maximum (in ClCCl): 364 nm

SMILES: C(#Cc1ccccc1)C(C#Cc1ccccc1)=Cc1ccc(C=C(C#Cc2ccccc2)C#Cc2ccccc2)s1
- absorption maximum (in ClC(Cl)Cl): 468 nm

SMILES: CC(=O)Nc1cccc2c1C#Cc1c(cccc1C(=O)N(C)C)OCCCO2
- absorption maximum (in CC#N): 315 nm
- absorption maximum (in ClCCl): 318 nm

SMILES: c1ccc(-c2ccnc(-c3ccccc3)n2)cc1
- absorption maximum (in ClC(Cl)Cl): 278 nm

SMILES: C/C(=N\Nc1ccc(C#N)cc1)c1ccccn1
- absorption maximum (in CC#N): 342 nm
- absorption maximum (in CCCCCC): 347 nm
- absorption maximum (in CO): 364 nm
- absorption maximum (in CS(C)=O): 351 nm
- absorption maximum (in ClC(Cl)Cl): 343 nm

SMILES: Cc1ccc(C2=Cc3c4ccccc4c4ccccc4[n+]3[B-](F)(F)O2)cc1
- absorption maximum (in ClC(Cl)Cl): 437 nm

SMILES: C[n+]1cc2ccc3c[n+](C)c4ccccc4c3c2c2ccccc21
- absorption maximum (in CC#N): 465 nm

SMILES: CCC1=C(C)C(=O)n2c1cc1c(CCC(=O)O)c(C)c(C)n1c2=O
- absorption maximum (in CC#N): 416 nm
- absorption maximum (in CC(C)=O): 415 nm
- absorption maximum (in CO): 421 nm
- absorption maximum (in CS(C)=O): 421 nm
- absorption maximum (in ClC(Cl)Cl): 423 nm
- absorption maximum (in c1ccccc1): 419 nm

SMILES: CC1(C)c2ccccc2N(c2ccc(-c3n[n+]4c(o3)-c3ccccc3O[B-]4(F)F)cc2)c2ccccc21
- absorption maximum (in C1COCCO1): 361 nm
- absorption maximum (in CC(C)=O): 360 nm
- absorption maximum (in CCN(CC)CC): 362 nm
- absorption maximum (in CCO): 361 nm
- absorption maximum (in CCOC(C)=O): 361 nm
- absorption maximum (in CS(C)=O): 362 nm
- absorption maximum (in Cc1ccccc1): 364 nm
- absorption maximum (in ClC(Cl)Cl): 367 nm
- absorption maximum (in ClCCCl): 362 nm
- absorption maximum (in ClCCl): 383 nm
- absorption maximum (in Clc1ccccc1): 369 nm

SMILES: CCn1c2cc(C(C)(C)C)ccc2c2c3nsnc3c3c4ccc(C(C)(C)C)cc4n(CC)c3c21
- absorption maximum (in CN(C)C=O): 430 nm
- absorption maximum (in Cc1ccccc1): 425 nm
- absorption maximum (in ClCCl): 430 nm

SMILES: COC(=O)C1=C(C(=O)OC)C2(c3ccccc3-c3ccccc32)[C@@H](c2ccc([N+](=O)[O-])cc2)C=C2c3cc(OC)c(OC)cc3CCN21
- absorption maximum (in ClCCl): 310 nm

SMILES: O=S1(=O)c2ccccc2Oc2cc(N3c4ccccc4C4(c5ccccc53)c3ccccc3N(c3ccc5c(c3)Oc3ccccc3S5(=O)=O)c3ccccc34)ccc21
- absorption maximum (in Cc1ccccc1): 359.89 nm

SMILES: Oc1cccc(-c2nc(-c3ccccc3)c(-c3ccccc3)[nH]2)c1
- absorption maximum (in CO): 300 nm

SMILES: N#Cc1c(/C=C/c2ccc(N(c3ccccc3)c3ccccc3)cc2)cc(-c2cccs2)cc1N1CCCCC1
- absorption maximum (in CS(C)=O): 404 nm

SMILES: COC(=O)c1[nH]c(-c2ccc([N+](=O)[O-])cc2)c2nnc3ccc(OC)cc3c12
- absorption maximum (in ClCCl): 436 nm

SMILES: Cc1ccc(C#Cc2ccc3ccc(=O)oc3c2)cc1
- absorption maximum (in CC#N): 304 nm

SMILES: C(#Cc1ccc(-n2c3ccccc3c3ccccc32)cc1)c1ccccc1
- absorption maximum (in CC#N): 324 nm
- absorption maximum (in CCCCC): 323 nm
- absorption maximum (in CO): 322 nm
- absorption maximum (in Cc1ccccc1): 329 nm
- absorption maximum (in ClC(Cl)Cl): 326 nm
- absorption maximum (in ClCCl): 326 nm

SMILES: COC(=O)c1[nH]c(-c2ccccc2)c2nnc3ccsc3c12
- absorption maximum (in ClCCl): 401 nm

SMILES: CCN(CC)c1ccc(/C=C/C(=O)c2c(O)cc(C)oc2=O)cc1
- absorption maximum (in CC#N): 476 nm
- absorption maximum (in CCCO): 468 nm
- absorption maximum (in CCO): 488 nm
- absorption maximum (in CCOC(C)=O): 472 nm
- absorption maximum (in Cc1ccccc1): 471 nm
- absorption maximum (in ClCCl): 480 nm

SMILES: Cn1cc(-c2nc3ccccc3nc2/C=C/N2CCCC2)c2ccccc21
- absorption maximum (in CC#N): 440 nm

SMILES: CCC1=C(C)C2=C(C)c3c(C)c(-c4csc(N5CCOCC5)n4)c(C)n3[B-](F)(F)[N+]2=C1C
- absorption maximum (in C1CCOC1): 524 nm
- absorption maximum (in C1COCCO1): 524 nm
- absorption maximum (in CC#N): 516 nm
- absorption maximum (in CC(C)O): 518 nm
- absorption maximum (in CCO): 516 nm
- absorption maximum (in CCOC(C)=O): 520 nm
- absorption maximum (in CN(C)C=O): 524 nm
- absorption maximum (in CO): 514 nm
- absorption maximum (in CS(C)=O): 521 nm
- absorption maximum (in Cc1ccccc1): 527 nm
- absorption maximum (in ClC(Cl)Cl): 523 nm
- absorption maximum (in ClCCl): 522 nm

SMILES: c1csc(-c2ccc(-c3ccc(-c4cccs4)s3)s2)c1
- absorption maximum (in CCCCCCCCCCCCCC): 391 nm
- absorption maximum (in ClCCl): 393 nm

SMILES: CC1(C)OB(c2cc3ccc4cc(B5OC(C)(C)C(C)(C)O5)cc5ccc(c2)c3c45)OC1(C)C
- absorption maximum (in Cc1ccccc1): 398 nm

SMILES: ClP1(Cl)=NP(Cl)(Cl)=NP(Cl)(Oc2ccc3ccc4cccc5ccc2c3c45)=N1 (stereo not drawn)
- absorption maximum (in ClCCl): 343 nm

SMILES: Nc1n[n+]([O-])c2ccccc2[n+]1[O-]
- absorption maximum (in CC#N): 477 nm
- absorption maximum (in O): 457 nm

Source: the Deep4Chem optical property database
